test system: breast cancer (BT-474); experiment: Anticancer activity assay (WST-8 cell growth), BT-474; format: cell-based; settings: Homo sapiens, BT-474, 96 h, read-out: IC50 (nM) BT-474
Protocol: The compounds of the present invention were assayed for inhibitory activity against 7 cancer cell lines as breast cancer (BT-474), human epithelial cancer (A-431), non-small cell lung cancer (NCI-H460), colon cancer (HT-29), colon cancer (SW-620), breast cancer (MDA-MB-231) and breast cancer (MCF-7).
Briefly, a suspension of each cancer cell line was serially diluted, and plated at a density of 2˜3×10^3 cells/well into 96-well microplates, followed by incubation at 37° C. for 4 day in a 5% CO2 atmosphere. Cell growth in a monolayer was measured using WST-8 reagemt (Dojindo, Japan).
IC50 values of the compounds against the cancer cell lines were calculated as compound concentrations at which the cells were grown by 50% OD of the control.

| Compound | IC50 [nM] |
| --- | --- |
| CC[C@H](C)[C@@H]([C@@H](CC(=O)N1C[C@H](OC)C[C@@H]1[C@H](OC)[C@@H](C)C(=O)N[C@H](C)C(=NO)c1ccc(F)cc1)OC)N(C)C(=O)[C@@H](NC(=O)[C@H](C(C)C)N(C)C)C(C)C [Compound I-21, (S)-2-((S)-2-(dimethylamino)-3-methylbutaneamido)-N-((3R,4S,5S)-1-((2R,4R)-2-((1R,2R)-3-(((R)-1-(4-fluorophenyl)-1-(hydroxyimino)propan-2-yl)amino)-1-methoxy-2-methyl-3-oxopropyl)-4-methoxypyrrolidin-1-yl)-3-methoxy-5-methyl-1-oxoheptan-4-yl)-N,3-dimethylbutanamide] | 0.59 |
| CC[C@H](C)[C@@H]([C@@H](CC(=O)N1C[C@H](OC)C[C@@H]1[C@H](OC)[C@@H](C)C(=O)NCC(=NO)c1cc(Br)ccc1C)OC)N(C)C(=O)[C@@H](NC(=O)[C@H](C(C)C)N(C)C)C(C)C [Compound I-22, (S)—N-((3R,4S,5S)-1-((2R,4R)-2-((1R,2R)-3-((2-(5-bromo-2-methylphenyl)-2-(hydroxyimino)ethyl)amino)-1-methoxy-2-methyl-3-oxopropyl)-4-methoxypyrrolidin-1-yl)-3-methoxy-5-methyl-1-oxoheptan-4-yl)-2-((S)-2-(dimethylamino)-3-methylbutaneamido)-N,3-dimethylbutanamide] | 0.91 |
| CC[C@H](C)[C@@H]([C@@H](CC(=O)N1C[C@H](OC)C[C@H]1[C@H](OC)[C@@H](C)C(=O)NC/C(=N/O)c1ccc(OC)cc1F)OC)N(C)C(=O)[C@@H](NC(=O)[C@@H](NC)C(C)C)C(C)C [Compound I-25] | 0.41 |
| CC[C@H](C)[C@@H]([C@@H](CC(=O)N1C[C@H](OC)CC1[C@H](OC)[C@@H](C)C(=O)NCC(=O)c1ccc(F)cc1C)OC)N(C)C(=O)[C@@H](NC(=O)[C@H](C(C)C)N(C)C)C(C)C (stereo partly drawn) [Compound I-26] | 0.79 |
| CC[C@H](C)[C@@H]([C@@H](CC(=O)N1C[C@H](OC)CC1[C@H](OC)[C@@H](C)C(=O)NCC(=O)c1ccc(F)cc1C)OC)N(C)C(=O)[C@@H](NC(=O)[C@@H](NC)C(C)C)C(C)C (stereo partly drawn) [Compound I-27] | 0.5 |
| CC[C@H](C)[C@@H]([C@@H](CC(=O)N1C[C@H](OC)C[C@H]1[C@H](OC)[C@@H](C)C(=O)NCC(=O)c1ccccc1C)OC)N(C)C(=O)[C@@H](NC(=O)[C@@H](NC)C(C)C)C(C)C [Compound I-28, (S)—N-((3R,4S,5S)-3-methoxy-1-((2S,4R)-4-methoxy-2-((1R,2R)-1-methoxy-2-methyl-3-oxo-3-((2-oxo-2-(o-tolyl)ethyl)amino)propyl)pyrrolidin-1-yl)-5-methyl-1-oxoheptan-4-yl)-N,3-dimethyl-2-((S)-3-methyl-2-(methylamino)butaneamido)butanamide] | 0.65 |
| CC[C@H](C)[C@@H]([C@@H](CC(=O)N1C[C@H](OC)C[C@H]1[C@H](OC)[C@@H](C)C(=O)NCC(=O)c1ccc(C)cc1)OC)N(C)C(=O)[C@@H](NC(=O)[C@@H](NC)C(C)C)C(C)C [Compound I-29, (S)—N-((3R,4S,5S)-3-methoxy-1-((2S,4R)-4-methoxy-2-((1R,2R)-1-methoxy-2-methyl-3-oxo-3-((2-oxo-2-(p-tolyl)ethyl)amino)propyl)pyrrolidin-1-yl)-5-methyl-1-oxoheptan-4-yl)-N,3-dimethyl-2-((S)-3-methyl-2-(methylamino)butaneamido)butanamide] | 0.61 |
| CC[C@H](C)[C@@H]([C@@H](CC(=O)N1C[C@H](OC)C[C@H]1[C@H](OC)[C@@H](C)C(=O)NCC(=O)c1ccc(F)cc1)OC)N(C)C(=O)[C@@H](NC(=O)[C@@H](NC)C(C)C)C(C)C [Compound I-30] | 0.77 |
| CC[C@H](C)[C@@H]([C@@H](CC(=O)N1C[C@H](OC)C[C@H]1[C@H](OC)[C@@H](C)C(=O)NCC(=O)c1ccc(OC)cc1F)OC)N(C)C(=O)[C@@H](NC(=O)[C@@H](NC)C(C)C)C(C)C [Compound I-31] | 0.54 |
| CC[C@H](C)[C@@H]([C@@H](CC(=O)N1CSC[C@@H]1[C@H](OC)[C@@H](C)C(=O)NCCc1c(F)cccc1F)OC)N(C)C(=O)[C@@H](NC(=O)[C@@H](NC)C(C)C)C(C)C [Compound I-32, (S)—N-((3R,4S,5S)-1-((S)-4-((1R,2R)-3-((2,6-difluorophenethyl)amino)-1-methoxy-2-methyl-3-oxopropyl)thiazolidin-3-yl)-3-methoxy-5-methyl-1-oxoheptan-4-yl)-N,3-dimethyl-2-((S)-3-methyl-2-(methylamino)butaneamido)butanamide] | 0.64 |
| CC[C@H](C)[C@@H]([C@@H](CC(=O)N1C[C@H](OC)C[C@H]1[C@H](OC)[C@@H](C)C(=O)NCCc1ccccn1)OC)N(C)C(=O)[C@@H](NC(=O)[C@@H](NC)C(C)C)C(C)C [Compound I-38, (2S)—N-((3R,4S)-3-methoxy-1-((2S,4R)-4-methoxy-2-((1R,2R)-1-methoxy-2-methyl-3-oxo-3-((2-(pyridin-2-yl)ethyl)amino)propyl)pyrrolidin-1-yl)-5-methyl-1-oxoheptan-4-yl)-N,3-dimethyl-2-((S)-3-methyl-2-(methylamino)butaneamido)butanamide] | 1.32 |
| CC[C@H](C)[C@@H]([C@@H](CC(=O)N1C[C@H](OC)C[C@H]1[C@H](OC)[C@@H](C)C(=O)NCCc1cccs1)OC)N(C)C(=O)[C@@H](NC(=O)[C@@H](NC)C(C)C)C(C)C [Compound I-39, (2S)—N-((3R,4S)-3-methoxy-1-((2S,4R)-4-methoxy-2-((1R,2R)-1-methoxy-2-methyl-3-oxo-3-((2-(thiophen-2-yl)ethyl)amino)propyl)pyrrolidin-1-yl)-5-methyl-1-oxoheptan-4-yl)-N,3-dimethyl-2-((S)-3-methyl-2-(methylamino)butaneamido)butanamide] | 0.67 |
| CC[C@H](C)[C@@H]([C@@H](CC(=O)N1C[C@@H](O)C[C@H]1[C@H](OC)[C@@H](C)C(=O)NCCc1c(F)cccc1F)OC)N(C)C(=O)[C@@H](NC(=O)[C@H](C(C)C)N(C)C)C(C)C [Compound I-40] | 0.23 |
| CC[C@H](C)[C@@H]([C@@H](CC(=O)N1C[C@@H](O)C[C@H]1[C@H](OC)[C@@H](C)C(=O)N[C@@H](C)C(=O)c1ccc(F)cc1)OC)N(C)C(=O)[C@@H](NC(=O)[C@H](C(C)C)N(C)C)C(C)C [Compound I-41, (2S)-2-((S)-2-(dimethylamino)-3-methylbutaneamido)-N-((3R,4S)-1-((2S,4S)-2-((1R,2R)-3-(((S)-1-(4-fluorophenyl)-1-oxopropan-2-yl)amino)-1-methoxy-2-methyl-3-oxopropyl)-4-hydroxypyrrolidin-1-yl)-3-methoxy-5-methyl-1-oxoheptan-4-yl)-N,3-dimethylbutanamide] | 1.83 |
| CC[C@H](C)[C@@H]([C@@H](CC(=O)N1C[C@@H](O)C[C@H]1[C@H](OC)[C@@H](C)C(=O)NCCc1c(F)cccc1F)OC)N(C)C(=O)[C@@H](NC(=O)[C@@H](NC)C(C)C)C(C)C [Compound I-42, (2S)—N-((3R,4S)-1-((2S,4S)-2-((1R,2R)-3-((2,6-difluorophenethyl)amino)-1-methoxy-2-methyl-3-oxopropyl)-4-hydroxypyrrolidin-1-yl)-3-methoxy-5-methyl-1-oxoheptan-4-yl)-N,3-dimethyl-2-((S)-3-methyl-2-(methylamino)butaneamido)butanamide] | 0.74 |
